Measured values reported in US11679108B2, “Aromatic heterocyclic compound, and pharmaceutical composition and use thereof” (GUANGZHOU HENOVCOM BIOSCIENCE CO., LTD., priority 2018, dated 2023).

Assays:
ATX = ATX (Homo sapiens, UniProt Q13822); assay: Analysis in vitro: LPC was used as substrate for screening enzyme activity (Amplex Red fluorescence); format: biochemical; settings: inhibitory activity against ATX, with LPC as substrate
Procedure, shortened: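 ATX lysoPLD activity was measured by coupled detection: LPC hydrolysis releases choline, which choline oxidase/HRP convert to an Amplex Red fluorescent signal (ex 530/em 590 nm). The enzyme mix (2 ng/μl ATX, 2 U/ml HRP, 0.2 U/ml choline oxidase) was combined with the substrate mix ([…], 400 μM Amplex Red) and 10-point threefold compound dilutions for 30 min. IC50 was derived from the inhibition ratio.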

ATX in human plasma = molecular target: T1, ATX in human plasma (Homo sapiens, UniProt Q13822); assay: Analysis in vitro: detection of LPA in human plasma for screening activity (LPA 18:2 by LC/MS/MS); format: biochemical; settings: incubated 2 hours at 37° C., LPA 18:2 detected by LC/MS/MS
T1 construct: blank plasma was derived from at least 6 individual people; from tissue; host or cells: human plasma (pooled from at least 6 individuals)
Procedure, shortened: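 Compounds at 0 to 10 μM were incubated for 2 h at 37° C. under 5% CO2 in pooled human plasma (≥6 donors), with endogenous LPC acting as substrate. LPA 18:2 was quantified by LC/MS/MS with an LPA 17:0 internal standard after methanol precipitation. IC50 values came from residual activity relative to compound-free plasma across 8 points of a 3-fold dilution series.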

SMILES | IC50 (ATX) | IC50 (ATX in human plasma)
CCc1nc2sc(N3CCC(N(C)C(N)=O)C3)nn2c1N(C)c1nc(-c2ccc(F)cc2)c(C#N)s1 (stereo not drawn) [Example 12, 1-{1-[5-((5-cyano-4-(4-fluorophenyl)thiazol-2-yl)(methyl)amino)-6-ethylimidazo[2,1-b][1,3,4]thiadiazol-2-yl]pyrrolidin-3-yl}-1-methylurea] | 0.01 to 100 nM | 0.01 to 100 nM
CCc1nc2sc(N3CCN(CC(=O)N4CC(O)C4)CC3)nn2c1N(C)c1nc(-c2ccc(F)cc2)c(C#N)s1 [Example 2, 2-{[6-ethyl-2-(4-(2-(3-hydroxyazetidin-1-yl)-2-oxoethyl)piperazin-1-yl)imidazo[2,1-b][1,3,4]thiadiazol-5-yl](methyl)amino}-4-(4-fluorophenyl)thiazole-5-carbonitrile] | 100 to 500 nM | 100 to 500 nM
CCc1nc2sc(N3CCC(N(C)S(C)(=O)=O)C3)nn2c1N(C)c1nc(-c2ccc(F)cc2)c(C#N)s1 (stereo not drawn) [Example 10, N-{1-[5-((5-cyano-4-(4-fluorophenyl)thiazol-2-yl)(methyl)amino)-6-ethylimidazo[2,1-b][1,3,4]thiadiazol-2-yl}pyrrolidin-3-yl]-N-methylmethanesulfonamide] | 0.01 to 100 nM | 0.01 to 100 nM
CCc1nc2sc(N3CC[C@@H](N(C)C(=O)N4CC(O)C4)C3)nn2c1N(C)c1nc(-c2ccc(F)cc2)c(C#N)s1 [Example 36, (R)—N-{1-[5-((5-cyano-4-(4-fluorophenyl)thiazol-2-yl)(methyl)amino)-6-ethylimidazo[2,1-b][1,3,4]thiadiazol-2-yl]pyrrolidin-3-yl}-3-hydroxy-N-methylazetidine-1-carboxamide] | 0.01 to 100 nM | 100 to 500 nM
CCc1nc2sc(N3CC[C@H](N(C)CC(=O)N4CC(C#N)C4)C3)nn2c1N(C)c1nc(-c2ccc(F)cc2)c(C#N)s1 [Example 47, (S)-2-{[2-(3-((2-(3-cyanoazetidin-1-yl)-2-oxoethyl)(methyl)amino)pyrrolidin-1-yl)-6-ethylimidazo[2,1-b][1,3,4]thiadiazol-5-yl](methyl)amino}-4-(4-fluorophenyl)-thiazole-5-carbonitrile] | 0.01 to 100 nM | 0.01 to 100 nM
CCc1nc2sc(C3CCN(CC(=O)N4CC(O)C4)CC3)nn2c1N(C)c1nc(-c2ccc(F)cc2)c(C#N)s1 [Example 17, 2-{[6-ethyl-2-(1-(2-(3-hydroxyazetidin-1-yl)-2oxoethyl)piperidin-4-yl)imidazo[2,1-b][1,3,4]thiadiazol-5-yl](methyl)amino}-4-(4-fluorophenyl)thiazole-5-carbonitrile] | 100 to 500 nM | 0.01 to 100 nM
